# Source: patent publication US8404647B2, “Peptidylarginine deiminase (PAD) inhibitors” (Chiralix B.V., priority 2008, dated 2013)
# pIC50: −log10 of the molar value. Square brackets hold non-standard residues; d marks the D form. Peptide text beside a SMILES is read from it. * marks the point of attachment. CA = chloroamidine (on ornithine side chain, O(CA) = ornithine chloroamidine), N=C(CCl)*; Orn(fluoroacetimidoyl) = N=C(CF)NCCC[C@H](N)C(=O)O; Orn = NCCC[C@H](N)C(=O)O
# Assays:
# [1] = system: collagen antibody induced arthritis (CAIA); assay: Collagen antibody induced arthritis (CAIA) mouse model; format: in vivo; conditions: 0.5 mg daily i.v. day 3 to 11 except day 9, male DBA/J1 mice, FIG. 6
# Experimental: FIG. 6. The collagen antibody induced arthritis (CAIA) model (MQR; 18.101) was used to test the therapeutic effect of the PAD-inhibitor CXP5.7-011 (SEQ ID NO:143). At day 0 mice were injected i.p. with 2.8 mg anti-collagen antibodies. LPS (25 μg/mouse) was administered on day 3 via i.p. injection. The inhibitor (0.5 mg CXP5.7-011 in 200 μl PBS containing 20 mM sodium phosphate), or 200 μl PBS containing 20 mM sodium phosphate as the placebo, was administered daily from day 3 until day 11 (with the exception of day 9). Animals were scored daily until day 14 for degree of inflammation. Mean arthritis score per experimental group (5 mice) is indicated at each time point.
# One of the peptide based human PAD 2 and PAD 4 inhibitors was tested in the commercially available collagen antibody induced arthritis (CAIA) mouse model (Modiquest research B.V., product number 18.101). Experimental procedures were performed according to manufacturers specifications to induce arthritis in mice (World Wide Web (www) modiquestresearch.n1/shop/files/18.101-50MG%20 —2007.08.22.pdf) In short, on day 0 male DBA/J1 mice (5mice/group) of the age of 8 weeks have been injected i.p. with a mix of 8 anti-collagen antibodies (2.8 mg/mouse). […]
# Animals where scored daily for degree of inflammation in their paws. […]
# hDDAH-1 = hDDAH-1 (Homo sapiens, UniProt O94760); assay: biochemical
# Chain of hDDAH-1 (O94760 whole entry): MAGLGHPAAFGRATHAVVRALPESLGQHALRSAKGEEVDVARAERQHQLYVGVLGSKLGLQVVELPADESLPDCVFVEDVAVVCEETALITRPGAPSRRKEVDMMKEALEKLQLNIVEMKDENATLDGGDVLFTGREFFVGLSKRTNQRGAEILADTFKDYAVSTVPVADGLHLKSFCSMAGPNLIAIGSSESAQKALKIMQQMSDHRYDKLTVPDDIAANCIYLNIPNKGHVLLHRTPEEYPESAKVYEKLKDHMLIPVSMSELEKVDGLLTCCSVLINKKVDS
# Experimental: The most commonly used procedure to determine hDDAH-1 activity relies on diacetyl monoxime (DAMO) derivatization of the ureido group in L-citrulline to form a colored product. This assay has been optimized for monitoring DDAH activity in a 96-well format {Knipp et al., 2000}.
# Purified recombinant His6-tagged hDDAH-1 was incubated with its substrate ADMA in assay buffer (100 mM Na2HPO4, pH 8.0) at 37° C. for 1 h. The reaction was quenched by the addition of 0.3 M trifluoroacetic acid. The L-citrulline formed was modified with 1.5 mg/ml DAMO (diacetyl monoxime) and 1.0 mg/ml antipyrine in the presence of 15% sulphuric acid, 12% phosphoric acid and 0.16 mg/ml FeCla3 for 10 minutes at 100° C. After cooling down to room temperature, the absorbance was measured at 450 nm.
# creatine kinase (CK) = assay: Creatine kinase activity (CK NAC activated liquiUV test); format: biochemical, mammalian; conditions: enzyme treated with inhibitor 10 min at room temperature
# Experimental: (§1) The activities of CK and TG (both purchased from Sigma-Aldrich (Schnelldorf, Germany) were assayed with the help of the commercial kits CK NAC activated liquiUV test form
# (§2) Human GmbH (Wiesbaden, Germany) and the Enzymatic Assay of [sequence] from Sigma-Aldrich (Schnelldorf, Germany) according to the manufacturers' instructions.
# transglutaminase (TG) = transglutaminase (TG) (UniProt P08587); assay: biochemical
# Chain of transglutaminase (TG) (P08587 whole entry): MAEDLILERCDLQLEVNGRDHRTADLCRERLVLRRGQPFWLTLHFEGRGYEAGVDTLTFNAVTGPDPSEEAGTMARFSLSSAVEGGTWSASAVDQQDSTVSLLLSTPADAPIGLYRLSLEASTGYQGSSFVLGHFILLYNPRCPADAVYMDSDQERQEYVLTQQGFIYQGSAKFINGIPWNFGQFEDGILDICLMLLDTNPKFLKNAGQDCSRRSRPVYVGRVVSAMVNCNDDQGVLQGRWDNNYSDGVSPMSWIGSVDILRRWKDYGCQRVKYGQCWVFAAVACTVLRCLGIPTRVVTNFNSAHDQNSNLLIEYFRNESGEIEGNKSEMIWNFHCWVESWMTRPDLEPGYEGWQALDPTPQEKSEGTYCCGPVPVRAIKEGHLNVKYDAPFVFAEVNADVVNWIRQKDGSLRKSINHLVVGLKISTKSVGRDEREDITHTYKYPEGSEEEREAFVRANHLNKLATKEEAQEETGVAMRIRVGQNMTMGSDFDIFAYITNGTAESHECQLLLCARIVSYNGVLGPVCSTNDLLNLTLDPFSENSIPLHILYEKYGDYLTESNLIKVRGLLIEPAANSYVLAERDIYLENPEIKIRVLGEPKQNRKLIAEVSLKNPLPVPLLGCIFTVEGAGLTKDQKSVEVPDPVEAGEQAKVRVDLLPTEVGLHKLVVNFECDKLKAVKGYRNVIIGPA
# Experimental: as §1, §2
# PAD2 [2] = biological target: T1, PAD2 (Homo sapiens, UniProt Q9Y2J8); assay: Colorimetric assay (BAEE, DAMO/antipyrine), PAD2; format: biochemical; conditions: Table 22, colorimetric assay of Example 6; read-out: IC50 values (μM) hPAD2
# T1 sequence (Q9Y2J8 whole entry): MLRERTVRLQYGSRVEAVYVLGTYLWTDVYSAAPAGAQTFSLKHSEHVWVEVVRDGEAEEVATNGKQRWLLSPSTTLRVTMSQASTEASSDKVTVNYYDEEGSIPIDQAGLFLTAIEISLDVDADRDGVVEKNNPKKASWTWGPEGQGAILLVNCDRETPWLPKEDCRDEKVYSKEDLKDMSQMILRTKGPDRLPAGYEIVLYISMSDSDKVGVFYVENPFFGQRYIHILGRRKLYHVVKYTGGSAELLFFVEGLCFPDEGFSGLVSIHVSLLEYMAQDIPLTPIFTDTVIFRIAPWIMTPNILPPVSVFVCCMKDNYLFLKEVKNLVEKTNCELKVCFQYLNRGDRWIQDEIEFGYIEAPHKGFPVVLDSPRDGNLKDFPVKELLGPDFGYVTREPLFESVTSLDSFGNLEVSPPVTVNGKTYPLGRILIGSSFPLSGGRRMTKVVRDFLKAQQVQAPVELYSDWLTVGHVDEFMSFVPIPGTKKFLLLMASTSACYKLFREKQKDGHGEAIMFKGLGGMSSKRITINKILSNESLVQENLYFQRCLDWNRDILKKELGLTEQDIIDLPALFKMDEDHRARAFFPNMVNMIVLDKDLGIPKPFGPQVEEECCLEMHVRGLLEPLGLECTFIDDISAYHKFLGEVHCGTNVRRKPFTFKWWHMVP
# Experimental: One of the assays that was used to investigate the inhibition of a PAD by the inhibitors, is the colorimetric assay that has been described previously {Sugawara et al. 1998}. In this assay benzoylarginine ethyl ester (BAEE) is incubated with a purified recombinant PAD enzyme as indicated in a buffer containing 50 mM Tris-HCl, pH 7.6, 10 mM CaCl2, 2 mM dithiothreitol for 3 hours at 37° C. […] After cooling down to room temperature, the absorbance is measured at 450 nm.
# To test the efficacy of the inhibitors (see Table 21) in this assay, a recombinant PAD enzyme as indicated was pre-incubated with various concentrations of inhibitory compounds for 15 minutes at 37° C.
# The capacity of various compounds to inhibit the human PAD2 (0.12 μM) and PAD4 (0.2 μM) in this colorimetric assay is illustrated in FIG. 4.
# caspase-3 = biological target: T2, caspase-3 (Homo sapiens, UniProt P42574); assay: Caspase-3 activity assay (Ac-DEVDpNA cleavage); format: biochemical, mammalian; conditions: enzyme treated with inhibitor 10 min at room temperature
# T2 sequence (P42574 29-175 limits assumed): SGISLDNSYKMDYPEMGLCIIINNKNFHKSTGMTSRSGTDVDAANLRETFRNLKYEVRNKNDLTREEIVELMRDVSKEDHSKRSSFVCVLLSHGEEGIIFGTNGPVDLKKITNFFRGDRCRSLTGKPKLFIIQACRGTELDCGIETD
# T2 sequence (P42574 176-277 limits assumed): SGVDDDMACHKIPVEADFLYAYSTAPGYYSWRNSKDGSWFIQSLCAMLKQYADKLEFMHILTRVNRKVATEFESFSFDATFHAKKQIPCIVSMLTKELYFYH
# Experimental: Upon incubation of purified recombinant caspase-3 with its commercially available substrate: acetyl-Asp-Glu-Val-Asp-p-nitroanilide (Ac-DEVDpNA) SEQ ID NO: 145 in CFS buffer (220 mM mannitol, 68 mM sucrose, 2mM NaCl, 2.5 mM KH2PO4, 10 mM HEPES, pH 7.4 plus a cocktail of protease inhibitors), the substrate is cleaved, pNA is released and its absorbance at 405 nm can be monitored.
# papain = papain (Carica papaya, UniProt P00784); assay: biochemical
# Chain of papain (P00784 134-345): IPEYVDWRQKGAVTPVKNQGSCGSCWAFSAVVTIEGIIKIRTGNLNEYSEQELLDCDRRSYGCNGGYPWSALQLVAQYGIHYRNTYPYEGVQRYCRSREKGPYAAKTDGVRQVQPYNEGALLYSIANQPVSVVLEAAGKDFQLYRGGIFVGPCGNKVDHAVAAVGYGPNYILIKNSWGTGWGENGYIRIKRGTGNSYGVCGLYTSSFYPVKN
# Experimental: The activity of papain was assessed using a similar experimental setting, based on its cleavage of pGlu-Phe-Leu-pNA in reaction buffer (25 mM Tris-HCL, pH 7.6; 150 mM NaCl).
# PAD2 [3] = conditions: low doses, in vitro; cited from earlier work
# His-tagged PAD4 = His-tagged PAD4 (Homo sapiens, UniProt Q9UM07); assay: Binding of biotinylated inhibitor peptide to His-tagged PAD4 (SDS-PAGE and blot); conditions: 3 h at 37° C.; binding resistant to boiling in the presence of SDS
# Chain of His-tagged PAD4 (Q9UM07 whole entry): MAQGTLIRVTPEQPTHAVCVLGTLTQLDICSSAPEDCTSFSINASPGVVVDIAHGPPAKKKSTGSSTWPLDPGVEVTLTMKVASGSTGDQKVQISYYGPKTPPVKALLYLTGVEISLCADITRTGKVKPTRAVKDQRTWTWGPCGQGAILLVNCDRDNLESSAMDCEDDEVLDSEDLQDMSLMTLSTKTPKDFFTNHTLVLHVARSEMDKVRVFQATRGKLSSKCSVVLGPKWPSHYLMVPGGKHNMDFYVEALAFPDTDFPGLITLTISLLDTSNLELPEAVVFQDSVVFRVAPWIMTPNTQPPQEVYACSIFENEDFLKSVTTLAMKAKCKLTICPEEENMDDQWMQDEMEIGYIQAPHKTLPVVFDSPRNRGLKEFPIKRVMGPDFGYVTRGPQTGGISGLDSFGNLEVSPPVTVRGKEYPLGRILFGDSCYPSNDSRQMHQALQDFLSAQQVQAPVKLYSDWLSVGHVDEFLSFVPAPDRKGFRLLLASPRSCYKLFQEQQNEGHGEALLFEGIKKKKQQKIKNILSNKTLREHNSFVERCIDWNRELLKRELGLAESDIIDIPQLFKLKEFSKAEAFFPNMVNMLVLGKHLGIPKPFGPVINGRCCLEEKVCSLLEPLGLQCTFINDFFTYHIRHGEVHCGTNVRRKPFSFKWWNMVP
# Experimental: In the following experiments mixtures of various quantities of biotinylated inhibitor peptide (biotin-Ahx-D-S-K-K-H-D-O(FA)-D-F-L-Y-S-D-amide (SEQ ID NO: 112), O(FA)=ornithine fluoroamidine, Ahx=6-aminohexanoic acid) and a fixed amount of His-tagged PAD4 were analysed. In short, 10 μl PAD4 solution was mixed with 10 μl inhibitor solution and incubated for 3 h at 37° C. After the addition of loading buffer containing SDS, samples were either boiled for 5 minutes or kept at room temperature. Samples were loaded on a 10% polyacrylamide gel and subjected to electrophoresis (about 1 h). Proteins were transferred to a PVDF membrane and developed with either streptavidin-alkaline phosphatase conjugate (FIG. 2) or with mouse-anti-His antibody followed by goat-anti-mouse alkaline phosphatase conjugate (FIG. 3), followed by visualisation using NBT/BCIP. In Table 18 the samples are specified.
# In FIG. 2 the biotin group of the inhibitor is visualised. Only lanes where the biotinylated inhibitor is present show a coloured band. The position of the bands is around the expected molecular weight of PAD4 (77 kDa). This indicates binding of the biotinylated peptide to PAD4. This binding is not broken by boiling of the sample in the presence of SDS. In FIG. 3 the His-tag of PAD4 is visualised. Only lanes where PAD4 is present show a coloured band. […]
# PAD2 [4] = biological target: T1, PAD2; assay: ABAP antibody based PAD enzyme activity assay, PAD2; format: biochemical; conditions: Table 19, first 8 pentapeptide inhibitors
# Experimental: These 8 pentapeptides inhibitors are represented by SEQ ID NO: 12-19. (O(FA) stands for ornithine fluoroamidine, O(CA) stands for ornithine chloroamidine). The IC50's for human PAD2 and 4 as well as for mouse PAD2 and 4 were determined in an assay developed by Zendman and others {Zendman et al. 2007}. Of this series the inhibitor T-D-O(FA)-G-S(CXP5-101) (SEQ ID NO: 12) was the best PAD2 and PAD4 inhibitor. Subsequently, several modifications were brought to this lead compound.
# To determine inhibition of PAD2 and PAD4 activity, the commercially available Antibody based PAD enzyme activity assay from ModiQuest Research (cat no: MQ17.101) has been used according to manufacturers specifications.
# PAD enzymes (amounts that give maximum deimination) were mixed with PAD inhibitors at the following concentrations (4.9, 9.8, 19.5, 39, 78.1, 156, 313, 625, 1250, 2500 and 5000 μM) and pre-incubated for 30 minutes at 37° C. After pre-incubation, mixtures of PAD enzymes and inhibitors were added to the wells for an additional incubation of 75 minutes. After thoroughly washing the 96-well plates with PBS, the conversion of the arginines into citrullines of the coating was measured with the use of a propriety anti-citrulline-antibody, followed by a secondary HRP-labelled antibody recognizing the anti-citrulline antibody. Incubation with both antibodies was performed for 1 h at 37° C. […]
molecule,measurement,setting,value
Ac-Y-D-O(CA)-G-S-amide (Ac-YD[Orn](CA)GS-NH2; SMILES CC(=O)N[C@@H](Cc1ccc(O)cc1)C(=O)N[C@@H](CC(=O)O)C(=O)N[C@@H](CCCNC(=N)CCl)C(=O)NCC(=O)N[C@@H](CO)C(N)=O) [CXP5.7-011],degree of inflammation (mean arthritis score),[1],clearly demonstrates the inhibitory potential of the inhibitor in this model
"CC[C@H](C)[C@H](NC(=O)[C@H](Cc1ccccc1)NC(=O)[C@H](CC(=O)O)NC(=O)[C@H](CCCNC(=N)CF)NC(=O)[C@H](CC(=O)O)NC(=O)[C@H](Cc1ccccc1)NC(=O)[C@H](CCCCN)NC(C)=O)C(N)=O [Peptide 0743-58FA, Ac-K-F-D-O(FA)-D-F-I-amide] (Ac-KFD[Orn(fluoroacetimidoyl)]DFI-NH2)",pIC50,hDDAH-1,< 2.70
same,IC50,creatine kinase (CK),800 µM
same,pIC50,transglutaminase (TG),3.00
same,IC50,PAD2 [2],35 µM
same,IC50,caspase-3,920 µM
same,pIC50,papain,< 2.70
"CC(=O)N[C@@H](CCCCN)C(=O)N[C@@H](Cc1c[nH]c2ccccc12)C(=O)N[C@@H](Cc1c[nH]cn1)C(=O)N[C@@H](CCCNC(=N)CF)C(=O)N[C@@H](CC(=O)O)C(=O)N[C@@H](Cc1ccccc1)C(=O)N[C@@H](Cc1ccccc1)C(N)=O [Peptide 0748-09FA, Ac-K-W-H-O(FA)-D-F-F-amide] (Ac-KWH[Orn(fluoroacetimidoyl)]DFF-NH2)",pIC50,transglutaminase (TG),< 3.00
same,IC50,caspase-3,> 1000 µM
same,pIC50,papain,< 2.70
CC(=O)O[C@H]1C(=O)[C@@]2(C)[C@H]([C@H](OC(=O)c3ccccc3)[C@]3(O)C[C@H](OC(=O)[C@H](O)[C@@H](NC(=O)c4ccccc4)c4ccccc4)C(C)=C1C3(C)C)[C@]1(OC(C)=O)CO[C@@H]1C[C@@H]2O [paclitaxel],inhibition of citrullination of MBP by PAD2,PAD2 [3],can inhibit citrullination of MBP by PAD2 in vitro
biotin-Ahx-D-S-K-K-H-D-O(FA)-D-F-L-Y-S-D-amide [biotinylated inhibitory peptide],mode of binding of the inhibitor to PAD4,His-tagged PAD4,covalent binding of the inhibitor to PAD4
"N=C(CF)NCCC[C@H](NC(=O)[C@H](CC(=O)O)NC(=O)CN)C(=O)N[C@@H](CO)C(=O)NCC(=O)O [SEQ ID NO: 13, G-D-O(FA)-S-G] (H-GD[Orn(fluoroacetimidoyl)]SG-OH)",IC50,PAD2 [4],17 µM
